Test results: US20080207694A1, “Hydroxamates as Histone Deacetylase Inhibitors and Pharmaceutical Formulations Containing Them” (priority 2005, published 2008)

Columns and labels:
[1] = system: histone deacetylase (HDAC), nuclear extract of Hela cells; test: Deacetylase activity on nuclear extract of HeLa cells (Fluor de Lys kit); format: biochemical, human; details: percent inhibition relative to control without inhibitor, compound at 0.1 μM
Method: (§1) The activity of the compounds as histone deacetylase (HDAC) inhibitors was measured using an in vitro acetylation assay. The compounds were then evaluated as inhibitors of proliferation of human tumor cell cultures.
Deacetylase Activity on Nuclear Extract of Hela Cells (Human Cervical Cancer Cell)
The assay (Fluor de Lys™ kit, BioMol) is divided into two steps: in the first step the substrate which comprises an acetylated lysine residue is reacted with the nuclear extract (HeLa) containing the enzymatic activity in the presence and absence of inhibitors. In the second step a fluorogenic reagent is added which highlights the deacetylated residues. A reduction in fluorescence is obtained where there has been inhibition of the deacetylase activity. The result is finally expressed as percent inhibition relative to the control without inhibitor at a concentration of 0.1 μM.

[2] = system: Human colon carcinoma cells HCT-116; test: Cytotoxic activity on culture of human colon carcinoma cells HCT-116 (Alamar Blue); format: cell-based; details: HCT-116 cells, 72 hours after addition of compounds, Alamar Blue viability
Method: as §1
24 hours after seeding, the compounds at different concentrations are added. […] 72 hours after addition of the compounds, cell viability is measured by means of the dye Alamar Blue.

Compound	% inhib. 0.1 μM [1] [%]	IC50 [2] [nM]	IC50 ([2]; Homo sapiens, HCT-116, 72 h) [nM]
N[C@@H](CC(=O)N1CCC(CCCC(=O)NO)CC1)c1ccc2ccccc2c1 [Ex 149, 4-[1-(3-(S)-Amino-3-naphthalen-2-yl-propionyl)-piperidin-4-yl]-N-hydroxy-butyramide]	62	130	–
O=C(CCCC1CCN(C(=O)Nc2cccc(-c3ccccc3)c2)CC1)NO [Ex 150, 4-(3-Hydroxycarbamoyl-propyl)-piperidine-1-carboxylic acid biphenyl-3-ylamide]	57	–	180
O=C(CCCC1CCN(C(=O)Nc2ccc(-c3ccccn3)cc2)CC1)NO [Ex 151, 4-(3-Hydroxycarbamoyl-propyl)-piperidine-1-carboxylic acid (4-pyridin-2-yl-phenyl)-amide]	50	–	100
N[C@H](CC(=O)N1CCC(CCCC(=O)NO)CC1)Cc1cccc2ccccc12 [Ex 154, 4-[1-(3-(S)-Amino-4-naphthalen-1-yl-butyryl)-piperidin-4-yl]-N-hydroxy-butyramide]	82	–	530
O=C(CCCC1CCN(C(=O)NCc2csc3ccccc23)CC1)NO [Ex 157, N-(benzo[b]thiophen-3-ylmethyl)-4-(4-(hydroxyamino)-4-oxobutyl)piperidine-1-carboxamide]	68	–	600
N[C@@H](CC(=O)N1CCC(CCCC(=O)NO)CC1)c1cccc2ccccc12 [Ex 158, 4-[1-(3-(S)-Amino-3-naphthalen-1-yl-propionyl)-piperidin-4-yl]-N-hydroxy-butyramide]	60	–	900
N[C@H](CC(=O)N1CCC(CCCC(=O)NO)CC1)c1cccc2ccccc12 [Ex 159, 4-[1-(3-(R)-Amino-3-naphthalen-1-yl-propionyl)-piperidin-4-yl]-N-hydroxy-butyramide]	79	–	200
COc1c(NC(=O)N2CCC(CCCC(=O)NO)CC2)ccc2ccccc12 [Ex 160]	67	200	–
COc1cc2ccccc2cc1NC(=O)N1CCC(CCCC(=O)NO)CC1 [Ex 161]	76	30	–
O=C(CCCC1CCN(C(=O)CCNCc2ccccc2)CC1)NO [Ex 164, 4-[1-(3-Benzylamino-propionyl)-piperidin-4-yl]-N-hydroxy-butyramide]	51	–	600
O=C(CCCC1CCN(C(=O)Nc2ccc(-c3cccc(F)c3)cc2)CC1)NO [Ex 165, 4-(3-Hydroxycarbamoyl-propyl)-piperidine-1-carboxylic acid (3′-fluoro-biphenyl-4-yl)-amide]	64	–	700
N[C@@H](CC(=O)N1CCC(CCCC(=O)NO)CC1)c1cccc(Cl)c1 [Ex 168, 4-{1-[3-(S)-Amino-3-(3-chloro-phenyl)-propionyl]-piperidin-4-yl}-N-hydroxy-butyramide]	55	90	–
O=C(CCCC1CCN(C(=O)NCCCc2c[nH]c3ccccc23)CC1)NO [Ex 170, N-(3-(1H-indol-3-yl)propyl)-4-(4-(hydroxyamino)-4-oxobutyl)piperidine-1-carboxamide]	51	–	200
N[C@@H](CC(=O)N1CCC(CCCC(=O)NO)CC1)c1cccc(Cl)c1 [Ex 171, 4-{1-[3-(S)-Amino-3-(3-chloro-phenyl)-propionyl]-piperidin-4-yl}-N-hydroxy-butyramide]	45	400	–
N[C@@H](CC(=O)N1CCC(CCCC(=O)NO)CC1)c1cccc(F)c1 [Ex 175, 4-{1-[3-(S)-Amino-3-(3-fluoro-phenyl)-propionyl]-piperidin-4-yl}-N-hydroxy-butyramide]	70	–	600
O=C(CCCC1CCN(C(=O)Nc2ccc(-c3csnn3)cc2)CC1)NO [Ex 178, 4-(3-Hydroxycarbamoyl-propyl)-piperidine-1-carboxylic acid (4-[1,2,3]thiadiazol-4-yl-phenyl)-amide]	45	–	300
Cc1cc(C)n(-c2ccc(NC(=O)N3CCC(CCCC(=O)NO)CC3)cc2)n1 [Ex 179, 4-(3-Hydroxycarbamoyl-propyl)-piperidine-1-carboxylic acid [4-(3,5-dimethyl-pyrazol-1-yl)-phenyl]-amide]	70	–	500
Nc1ccc2cc(NC(=O)N3CCC(CCCC(=O)NO)CC3)ccc2c1 [Ex 181, N-(6-aminonaphthalen-2-yl)-4-(4-(hydroxyamino)-4-oxobutyl)piperidine-1-carboxamide]	64	–	470
O=C(CCCC1CCN(C(=O)CCNc2cccc3ccccc23)CC1)NO [Ex 186, 4-[1-(3-(1)Naphtylamino-propionyl)-piperidin-4-yl]-N-hydroxy-butyramide]	81	360	–
O=C(CCCC1CCN(C(=O)NCc2csc3ccc(Cl)cc23)CC1)NO [Ex 188, N-(5-Chloro-benzo[b]thiophen-3-ylmethyl)-4-(4-(hydroxyamino)-4-oxobutyl)piperidine-1-carboxamide]	50	–	210
O=C(CCCC1CCN(C(=O)NCc2ccc(-c3ccsc3)cc2)CC1)NO [Ex 190, N-(4-(thiophen-3-yl)benzyl)-4-(4-(hydroxyamino)-4-oxobutyl)piperidine-1-carboxamide]	69	–	480
O=C(CCCC1CCCN(C(=O)Nc2ccccc2)C1)NO (centres unmarked) [Ex 192, 3-(4-(hydroxyamino)-4-oxobutyl)-N-phenylpiperidine-1-carboxamide]	68	–	600
N[C@@H](CC(=O)N1CCC(CCCC(=O)NO)CC1)C(=O)NCc1ccccc1 [Ex 193, 2-(s)-Amino-N-benzyl-4-[4-(3-hydroxycarbamoyl-propyl)-piperidin-1-yl]-4-oxo-butyramide]	50	–	900
O=C(CCCC1CCN(C(=O)Nc2cc3ccccc3s2)CC1)NO [Ex 195, N-(benzo[b]thiophene)-4-(4-(hydroxyamino)-4-oxobutyl)piperidine-1-carboxamide]	42	400	–
O=C(CCCC1CCN(C(=O)Nc2cccc3c2CCCC3)CC1)NO [Ex 198, 4-(3-Hydroxycarbamoyl-propyl)-piperidine-1-carboxylic acid (5,6,7,8-tetrahydro-naphthalen-1-yl)-amide]	77	–	400
